The target of data set [1] is IRAK4 (Homo sapiens (Human), UniProt Q9NWZ3). As to the kind of experiment: IRAK4 MSD biochemical assay (2-hour 1 mM ATP). The settings on record: 0.1 nM IRAK4, 1 mM ATP, 2 hour at room temperature.
The target of data set [2] is MDR1 (Homo sapiens (Human), UniProt P08183). As to the kind of experiment: in vitro. The following applies: MDCK-MDR1.
Data set [3] in a line: Kinetic solubility assay (CLND), pH 6.8. The class given is physicochemical. The settings on record: aqueous buffer, kinetic from dmso stock; potassium phosphate buffer pH 6.8, 2% DMSO, 24 hours at ambient temperature.

The results in this text go back to US20240116922A1, “IMIDAZO[1,2-A]PYRIDINE DERIVATIVES AS IRAK4 INHIBITORS AND THEIR USE IN THE TREATMENT OF DISEASE” (BIOGEN MA INC., priority 2020, published 2024).

Converted amounts (≈) assume the structure as drawn. Counter-ions that a name gives are not always drawn.

Sequence of IRAK4 (Q9NWZ3 whole entry): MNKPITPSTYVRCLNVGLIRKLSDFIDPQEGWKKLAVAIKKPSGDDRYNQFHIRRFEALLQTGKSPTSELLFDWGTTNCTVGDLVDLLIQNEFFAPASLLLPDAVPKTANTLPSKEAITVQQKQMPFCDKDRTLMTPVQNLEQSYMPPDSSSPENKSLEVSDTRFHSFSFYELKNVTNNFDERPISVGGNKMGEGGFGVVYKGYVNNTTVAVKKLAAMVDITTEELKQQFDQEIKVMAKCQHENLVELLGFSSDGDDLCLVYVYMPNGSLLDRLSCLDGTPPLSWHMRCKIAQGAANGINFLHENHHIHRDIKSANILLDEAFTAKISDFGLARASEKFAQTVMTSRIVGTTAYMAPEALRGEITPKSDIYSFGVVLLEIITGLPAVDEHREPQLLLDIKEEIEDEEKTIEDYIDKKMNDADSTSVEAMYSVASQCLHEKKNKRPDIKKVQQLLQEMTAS
Sequence of MDR1 (P08183 whole entry): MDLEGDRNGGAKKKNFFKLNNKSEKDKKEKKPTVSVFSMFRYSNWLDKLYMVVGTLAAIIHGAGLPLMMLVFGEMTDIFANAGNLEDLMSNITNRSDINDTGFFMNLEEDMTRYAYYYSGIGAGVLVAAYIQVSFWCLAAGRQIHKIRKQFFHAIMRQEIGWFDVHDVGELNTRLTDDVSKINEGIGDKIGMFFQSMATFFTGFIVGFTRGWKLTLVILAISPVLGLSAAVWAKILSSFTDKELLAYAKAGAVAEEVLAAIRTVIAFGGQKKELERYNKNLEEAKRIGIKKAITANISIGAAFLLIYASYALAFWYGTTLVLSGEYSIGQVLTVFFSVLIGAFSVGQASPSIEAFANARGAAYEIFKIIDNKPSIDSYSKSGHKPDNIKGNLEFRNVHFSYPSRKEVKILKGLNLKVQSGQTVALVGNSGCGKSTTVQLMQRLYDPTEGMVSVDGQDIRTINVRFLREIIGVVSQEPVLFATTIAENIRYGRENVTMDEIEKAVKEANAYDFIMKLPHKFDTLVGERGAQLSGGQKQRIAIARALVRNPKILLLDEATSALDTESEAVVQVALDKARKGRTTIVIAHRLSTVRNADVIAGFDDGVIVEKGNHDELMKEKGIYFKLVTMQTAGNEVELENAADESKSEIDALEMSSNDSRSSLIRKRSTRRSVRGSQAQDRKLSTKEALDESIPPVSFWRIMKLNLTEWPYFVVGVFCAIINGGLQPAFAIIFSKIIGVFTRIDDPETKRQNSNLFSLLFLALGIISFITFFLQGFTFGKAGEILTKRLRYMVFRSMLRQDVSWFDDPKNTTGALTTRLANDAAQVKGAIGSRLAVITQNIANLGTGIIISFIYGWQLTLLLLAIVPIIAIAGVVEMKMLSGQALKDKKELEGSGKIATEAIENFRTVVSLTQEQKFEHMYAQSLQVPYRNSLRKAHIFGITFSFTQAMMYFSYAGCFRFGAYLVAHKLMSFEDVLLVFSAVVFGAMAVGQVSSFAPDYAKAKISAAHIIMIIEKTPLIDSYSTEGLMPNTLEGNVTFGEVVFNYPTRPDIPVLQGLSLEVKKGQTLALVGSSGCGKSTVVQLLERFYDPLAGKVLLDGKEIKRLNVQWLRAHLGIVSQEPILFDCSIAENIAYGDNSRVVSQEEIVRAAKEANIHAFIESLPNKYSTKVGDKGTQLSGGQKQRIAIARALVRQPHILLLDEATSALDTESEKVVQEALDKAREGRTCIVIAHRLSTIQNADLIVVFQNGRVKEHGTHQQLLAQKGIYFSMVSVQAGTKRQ

`CC(C)Oc1cc2nc(C34COC(C)(C3)C4)cn2cc1C(=O)Nc1cccn([C@@H]2C[C@H]2C)c1=O` [Example 139, 7-isopropoxy-2-(1-methyl-2-oxabicyclo[2.1.1]hexan-4-yl)-N-(1-((1R,2R)-2-methylcyclopropyl)-2-oxo-1,2-dihydropyridin-3-yl)imidazo[1,2-a]pyridine-6-carboxamide] showed an IC50 in data set [1] of 0.5 nM. Also, the efflux ratio at 120 min, 1 μM in data set [2] was 3. The compound also displayed a solubility (kinetic) at 24 h in data set [3] of 38.4 µg/mL (≈ 83 µM).
The corresponding values for `CC(C)Oc1cc2nc([C@]34CC[C@](C)(C3)OC4)cn2cc1C(=O)Nc1ccnn(C2CC2)c1=O` [Example 75, N-(2-cyclopropyl-3-oxo-2,3-dihydropyridazin-4-yl)-7-isopropoxy-2-((1R,4S)-1-methyl-2-oxabicyclo[2.2.1]heptan-4-yl)imidazo[1,2-a]pyridine-6-carboxamide] are 1.6 nM, 1.4 and 40.4 µg/mL (≈ 87.2 µM).
Regarding `CC12CCC(c3cn4cc(C(=O)Nc5cccn(C6CC6)c5=O)c(OC5CCC5)cc4n3)(CO1)C2` (stereo not drawn) [Example 23, 7-cyclobutoxy-N-(1-cyclopropyl-2-oxo-1,2-dihydropyridin-3-yl)-2-(1-methyl-2-oxabicyclo[2.2.1]heptan-4-yl)imidazo[1,2-a]pyridine-6-carboxamide], in data set [1], the IC50 is 0.5 nM. The efflux ratio at 120 min, 1 μM in data set [2] stood at 2.8. The kinetic solubility at 24 h in data set [3] was found to be 61.9 µg/mL (≈ 130 µM).
Regarding `CC(Oc1cc2nc(C34COC(C)(C3)C4)cn2cc1C(=O)Nc1cccn(C2CC2)c1=O)C(F)F` [Example 102, (S)—N-(1-cyclopropyl-2-oxo-1,2-dihydropyridin-3-yl)-7-((1,1-difluoropropan-2-yl)oxy)-2-(1-methyl-2-oxabicyclo[2.1.1]hexan-4-yl)imidazo[1,2-a]pyridine-6-carboxamide], in data set [1], the IC50 was determined as 0.3 nM. The efflux ratio at 120 min, 1 μM in data set [2] was 10.8. Further, the solubility (kinetic) at 24 h in data set [3] came to 69.3 µg/mL (≈ 143 µM).
`CC(C)Oc1cc2nc([C@H]3COCCO3)cn2cc1C(=O)Nc1cccn(C2CC2)c1=O` (single isomer, unassigned) [Example 70]: half-maximal inhibition in data set [1] (IC50) was put at 1.2 nM. Besides, in data set [2], the efflux ratio at 120 min, 1 μM is 3.9. Moreover, in data set [3], the kinetic solubility at 24 h came to 9.9 µg/mL (≈ 22.6 µM).
Compound `O=C(Nc1cccn([C@H]2C[C@H]2F)c1=O)c1cn2cc(C34COC(C3)C4)nc2nc1OC1CCC1` (single isomer, unassigned) [Example 167] registered an IC50 in data set [1] of 0.2 nM. Also, the efflux ratio at 120 min, 1 μM in data set [2] is 2.3. Moreover, the solubility (kinetic) at 24 h in data set [3] stood at 19.2 µg/mL (≈ 41.2 µM).
As to `CC(C)Oc1c(C(=O)Nc2cccn([C@H]3C[C@H]3F)c2=O)cn2cc(C34COC(C)(C3)C4)nc2c1F` (single isomer, unassigned) [Example 93], it took 0.6 nM to reach half-maximal inhibition in data set [1] (IC50). For the same compound, the efflux ratio at 120 min, 1 μM in data set [2] came out at 4.9. The compound further showed a kinetic solubility at 24 h in data set [3] of 62.8 µg/mL (≈ 130 µM).
The corresponding values for `Cc1cnc2c(NC(=O)c3cn4cc([C@@]56CC[C@@](C)(C5)OC6)nc4cc3OC(C)C)cnn2c1` (single isomer, unassigned) [Comparator 3B, reference compound] are 0.1 nM, 2 and 0.7 µg/mL (≈ 1.52 µM).
`C[C@H](Oc1cc2nc(C34COC(C)(C3)C4)cn2cc1C(=O)Nc1cccn(C2C[C@H]2F)c1=O)C(F)F` (stereo partly drawn) [Example 184, 7-(((S)-1,1-difluoropropan-2-yl)oxy)-N-(1-((1S,2R)-2-fluorocyclopropyl)-2-oxo-1,2-dihydropyridin-3-yl)-2-(1-methyl-2-oxabicyclo[2.1.1]hexan-4-yl)imidazo[1,2-a]pyridine-6-carboxamide]: 0.2 nM corresponded to half-maximal inhibition in data set [1] (IC50). In data set [2], the efflux ratio at 120 min, 1 μM worked out at 19.2. For the same compound, the solubility (kinetic) at 24 h in data set [3] worked out at 73.4 µg/mL (≈ 146 µM).
For `CC(C)Oc1cc2nc([C@@]34CC[C@@](C)(C3)OC4)cn2cc1C(=O)Nc1cccn([C@H]2C[C@H]2C)c1=O` [Example 182, 7-isopropoxy-2-((1S,4R)-1-methyl-2-oxabicyclo[2.2.1]heptan-4-yl)-N-(1-((1S,2R)-2-methylcyclopropyl)-2-oxo-1,2-dihydropyridin-3-yl)imidazo[1,2-a]pyridine-6-carboxamide trifluoroacetate], in that order: 0.2 nM, 3.9 and 31.8 µg/mL.
For `O=C(Nc1cccn(C2CC2F)c1=O)c1cn2cc([C@]34CO[C@](CF)(C3)C4)nc2nc1OC1CCC1` (mixture of isomers) [Example 106, (rac)-Cis-7-cyclobutoxy-N-(1-(2-fluorocyclopropyl)-2-oxo-1,2-dihydropyridin-3-yl)-2-(1-(fluoromethyl)-2-oxabicyclo[2.1.1]hexan-4-yl)imidazo[1,2-a]pyrimidine-6-carboxamide], in data set [1], inhibition was half-maximal at 0.5 nM (IC50). Further, the efflux ratio at 120 min, 1 μM in data set [2] is 12.8. Further, the kinetic solubility at 24 h in data set [3] came to 44.4 µg/mL.
`CC[C@@H](C)Oc1nc2nc(C34COC(C)(C3)C4)cn2cc1C(=O)Nc1cccn([C@H]2C[C@H]2F)c1=O` (single isomer, unassigned) [Example 58] had an IC50 in data set [1] of 0.4 nM. For the same compound, the efflux ratio at 120 min, 1 μM in data set [2] amounted to 9. The compound also registered a solubility (kinetic) at 24 h in data set [3] of 72.1 µg/mL (≈ 150 µM).
In data set [1], `CC(C)Oc1cc2nc([C@@]34CC[C@@](C)(C3)OC4)cn2cc1C(=O)Nc1ccnn(C2CC2)c1=O` [Example 74, N-(2-cyclopropyl-3-oxo-2,3-dihydropyridazin-4-yl)-7-isopropoxy-2-((1S,4R)-1-methyl-2-oxabicyclo[2.2.1]heptan-4-yl)imidazo[1,2-a]pyridine-6-carboxamide] returned an IC50 of 1.2 nM. Besides, the efflux ratio at 120 min, 1 μM in data set [2] is 1. The solubility (kinetic) at 24 h in data set [3] was determined as 47.5 µg/mL (≈ 102 µM).
Compound `C[C@@H](CF)Oc1cc2nc(C34COC(C)(C3)C4)cn2cc1C(=O)Nc1cccn(C2CC2)c1=O` [Example 28, (S)—N-(1-cyclopropyl-2-oxo-1,2-dihydropyridin-3-yl)-7-((1-fluoropropan-2-yl)oxy)-2-(1-methyl-2-oxabicyclo[2.1.1]hexan-4-yl)imidazo[1,2-a]pyridine-6-carboxamide] registered an IC50 in data set [1] of 0.2 nM. The efflux ratio at 120 min, 1 μM in data set [2] is 18.2. Further, in data set [3], the kinetic solubility at 24 h worked out at 62.6 µg/mL (≈ 134 µM).
The corresponding values for `C[C@]12CC[C@](c3cn4cc(C(=O)Nc5cccn(C6CC6)c5=O)c(OC5CCC5)nc4n3)(CO1)C2` (single isomer, unassigned) [Example 17] are 0.5 nM, 3.9 and 8.5 µg/mL (≈ 17.9 µM).
Take `CC12CC(c3cn4cc(C(=O)Nc5cccn([C@H]6C[C@H]6F)c5=O)c(OC5CC5)cc4n3)(CO1)C2` [Example 175, 7-cyclopropoxy-N-(1-((1S,2R)-2-fluorocyclopropyl)-2-oxo-1,2-dihydropyridin-3-yl)-2-(1-methyl-2-oxabicyclo[2.1.1]hexan-4-yl)imidazo[1,2-a]pyridine-6-carboxamide]: in data set [1], the IC50 turned out to be 0.2 nM. Further, the efflux ratio at 120 min, 1 μM in data set [2] is 8.9. Moreover, the kinetic solubility at 24 h in data set [3] was determined as 43 µg/mL (≈ 92.6 µM).
In data set [1], `C[C@@H](CF)Oc1cc2nc(C34CCC(C)(C3)OC4)cn2cc1C(=O)Nc1cccn(C2CC2)c1=O` (mixture of isomers) [Example 30, N-(1-cyclopropyl-2-oxo-1,2-dihydropyridin-3-yl)-7-(((S)-1-fluoropropan-2-yl)oxy)-2-(1-methyl-2-oxabicyclo[2.2.1]heptan-4-yl)imidazo[1,2-a]pyridine-6-carboxamide] returned an IC50 of 0.2 nM. Besides, the efflux ratio at 120 min, 1 μM in data set [2] turned out to be 11.1. Further, the solubility (kinetic) at 24 h in data set [3] turned out to be 46.5 µg/mL.
Regarding `CC(C)Oc1cc2nc([C@@]34CC[C@@](C)(C3)OC4)cn2cc1C(=O)Nc1cccn([C@@H]2C[C@H]2F)c1=O` [Example 116, N-(1-((1R,2R)-2-fluorocyclopropyl)-2-oxo-1,2-dihydropyridin-3-yl)-7-isopropoxy-2-((1S,4R)-1-methyl-2-oxabicyclo[2.2.1]heptan-4-yl)imidazo[1,2-a]pyridine-6-carboxamide], inhibition in data set [1] was half-maximal at 0.6 nM (IC50). In data set [2], the efflux ratio at 120 min, 1 μM turned out to be 5.3. In data set [3], this compound showed a solubility (kinetic) at 24 h of 55.6 µg/mL (≈ 116 µM).
Regarding `CC[C@H](C)Oc1nc2nc(C34COC(C)(C3)C4)cn2cc1C(=O)Nc1cccn(C2CC2)c1=O` (single isomer, unassigned) [Example 64], it took 0.5 nM to reach half-maximal inhibition in data set [1] (IC50). The efflux ratio at 120 min, 1 μM in data set [2] stood at 5. For the same compound, in data set [3], the solubility (kinetic) at 24 h was found to be 49.6 µg/mL (≈ 107 µM).
On to `CC12CC(c3cn4cc(C(=O)Nc5cccn([C@@H]6C[C@@H]6F)c5=O)c(OC5CC5)cc4n3)(CO1)C2` (racemic) [Example 105, (rac)-Cis-7-cyclopropoxy-N-(1-(2-fluorocyclopropyl)-2-oxo-1,2-dihydropyridin-3-yl)-2-(1-methyl-2-oxabicyclo[2.1.1]hexan-4-yl)imidazo[1,2-a]pyridine-6-carboxamide], for which, in data set [1], the IC50 was 0.7 nM. The efflux ratio at 120 min, 1 μM in data set [2] stood at 15.8. For the same compound, the kinetic solubility at 24 h in data set [3] was found to be 38.7 µg/mL (≈ 83.3 µM).
Consider `CC(C)Oc1nc2nc([C@]34CC[C@](C)(C3)OC4)cn2cc1C(=O)Nc1cccn([C@H]2CC23CC3)c1=O` (single isomer, unassigned) [Example 152], for which the IC50 in data set [1] is 0.8 nM. For the same compound, the efflux ratio at 120 min, 1 μM in data set [2] was determined as 1.4. For the same compound, the kinetic solubility at 24 h in data set [3] came to 24.9 µg/mL (≈ 50.9 µM).
`C[C@@]12CC[C@@](c3cn4cc(C(=O)Nc5cccn(C6CC6)c5=O)c(OC5CCC5)nc4n3)(CO1)C2` (single isomer, unassigned) [Example 16] had an IC50 in data set [1] of 0.3 nM. For the same compound, in data set [2], the efflux ratio at 120 min, 1 μM was found to be 2.8. The compound also came in with a kinetic solubility at 24 h in data set [3] of 5.2 µg/mL (≈ 10.9 µM).
`CC[C@H](C)Oc1cc2nc([C@@]34CC[C@@](C)(C3)OC4)cn2cc1C(=O)Nc1cccn(C2CC2)c1=O` (single isomer, unassigned) [Example 22] came in with an IC50 in data set [1] of 0.3 nM. For the same compound, the efflux ratio at 120 min, 1 μM in data set [2] was found to be 4.3. Besides, in data set [3], the solubility (kinetic) at 24 h came to 69 µg/mL (≈ 145 µM).
